{
  "source": "paper PMC8652888",
  "about": "“Angiogenesis, Anti-Tumor, and Anti-Metastatic Activity of Novel α-Substituted Hetero-Aromatic Chalcone Hybrids as Inhibitors of Microtubule Polymerization” (Frontiers in Chemistry, 2021)",
  "key": {"HUVECs": {"test_system": "HUVECs", "assay": "Tube formation assay", "assay_type": "cell-based, human", "details": "1, 5, 25 μM, 6–8 h", "procedure": "HUVECs (human umbilical vein endothelial cells) grown on Matrigel were commonly used as a tube formation model and also a widely studied human endothelial cell type in angiogenesis, for their ability to alter their shape to resemble capillaries ([Aranda and Owen, 2009]). […] We therefore examined the effects of 7m on HUVEC tube formation to evaluate its potential effect on angiogenesis.\nThe HUVECs were seeded in 96-well plates and cultured for 24 h, and then incubated with 1, 5, and 25 μM 7m. The EC Matrigel matrix was thawed overnight at 4°C. The HUVECs, suspended in F12K, were seeded in a 96-well culture plate at a cell density of 10,000 cells/well after 45 min of Matrigel polymerization at 37°C. Then they were treated with different concentrations of 7m or carrier at 37°C for 6–8 h. Then the morphological changes of the formed cells and tubes under an inverted microscope were observed, and pictures were taken."}, "[1]": {"test_system": "Caspase-3/-7/-9 and PARP in MCF-7 cells", "assay": "Western blot of apoptosis-related proteins", "assay_type": "cell-based, human", "excerpt": "The Caspase family proteins are considered to be critical regulators of cell apoptosis and facilitate cellular disassembly. Among them, Caspase-9 is termed as a typical caspase and is usually activated first, which in turn activates the “executioner” of apoptosis induction, in particular, Caspase-3. It is known that the […] of poly (ADP-ribose) polymerase (PARP), a downstream substrate of Caspase-3, is a common feature of nuclear fragmentation and chromatin condensation ([Hensley and Kyprianou, 2013]). Thus, the association between 7m-induced apoptosis and the expression of these proteins was investigated by Western blot analysis. MCF-7 cells were treated with 7m at different concentrations (100, 200, and 400 nM) for 48 h.\nMCF-7 cells were seeded into […] dishes at a density of 6 × 10^5/dish and incubated for 24 h. After treating the cells with the compound 7m, the cells were cultured for 48 h and washed with PBS, and then the soluble and insoluble tubulin fractions were collected. Protein quantification was performed by BCA Protein Concentration Determination Kit following centrifugation at 12,000 rpm for 10 min at 4°C. Cell lysates were separated by SDS-PAGE at 80 V constant voltage for 30–40 min. […] After 5% skim milk was blocked for 1 h, the primary antibody was added and incubated overnight before being washed three times with PBST. The secondary antibody was incubated for 2 h at room temperature the next day and subsequently washed three times with PBST. Then the signal was detected with ECL."}, "[2]": {"test_system": "MCF-7, U937, HepG2 and MGC-803 cells", "assay": "Antiproliferative activity, cancer cell panel (text summaries)", "assay_type": "cell-based, human", "details": "U937, MCF7, HepG2; read-out: IC50 against three cancer cells", "procedure": "The synthesized compounds were first evaluated for their cytotoxic effect on MCF-7 (human breast adenocarcinoma), U937 (histiocytic lymphoma cancer), HepG2 (human liver cancer) cells, and MGC-803 (human gastric cancer) using the SRB and CCK-8 assay. As reference compounds CA-4 and colchicine were included.\nThe primary tumor cells were purchased from a professional biomedical company. First, the primary tumor cells were incubated in a cell culture incubator at 37°C and 5% CO2. After the cell fusion reached 85%–95%, subculture was performed, and the tumor cells obtained at this time were used for subsequent related experiments. The CCK-8 method was used to inhibit the proliferation of U937 tumor cells, and the SRB method was used to inhibit the proliferation of MCF7 and HepG2 tumor cells.\nCells were distributed into 96-well plates with a density of 3 × 10^3–4 × 10^3 cells per well and incubated for 24 h in a 5% CO2 incubator at 37°C, followed by treatment with study compounds at different concentrations at 37°C for 72 h. One hundred microliters of 10% (w/v) trichloroacetic acid was added to each well, fixed at 4°C for 30 min, and dried at 65°C. Then 100 μl of 0.4% SRB was added to each well and stained on a shaker for 20 min at room temperature. The excess dye solution was washed with newly prepared 1% glacial acetic acid and dried at 65°C. One hundred fifty microliters of 10 mM unbuffered Trisbase was added to each well of the plate and shaken for 5 min to dissolve the dye. The microplate reader measured the optical density (OD) at a wavelength of 560 nm.\nThe cells in the logarithmic growth phase were seeded in a 96-well plate at 8,000/well, and the drug-containing medium and cell suspension were added to the well. Three wells were added with the blank medium as the blank group. The 96-well plate was incubated for 72 h in a 37°C, 5% CO2 incubator. The 10 μl of CCK-8 dye solution was added to each well, and the incubation continued for 3–4 h."}, "U937": {"test_system": "U937", "assay": "Antiproliferative activity, CCK-8 assay", "assay_type": "cell-based", "outline": "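U937 cells in log phase seeded at 8,000/well with compound-containing medium and incubated 72 h at 37 °C, 5% CO2. Proliferation read by CCK-8 dye after a further 3–4 h incubation, against blank-medium wells.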"}, "MCF-7 cells": {"test_system": "MCF-7 cells", "assay": "Apoptosis analysis, Annexin-V FITC/PI flow cytometry", "assay_type": "cell-based, human", "details": "for Late-apoptosis (Q2 of Annexin/PI plot), single runs / Pro-apoptosis (Q3 of Annexin/PI plot), single runs / percentage of apoptotic cells (early and late apoptosis): 48 h", "procedure": "To test whether compound 7m induced reduction in cell viability was responsible for the induction of apoptosis, MCF-7 cells were stained with Annexin-V FITC/PI staining, and the number of apoptotic cells was estimated by flow cytometry.\nThe MCF-7 cells in 12-well plates (8 × 10^4 cells/well) were cultured for 24 h at 37°C in 5% CO2 and then incubated with 7m at concentrations of 100, 200, 400 nM, or vehicle to induce cell apoptosis for 48 h. Then the cells floating in the supernatant were combined with the adherent fraction and washed with PBS three times. The cells were incubated with Annexin V-FITC and PI for 15 min at 37°C in the dark. Apoptosis was quantified using a flow cytometer (Becton, Dickinson and Company, USA)."}},
  "note": "Values joined by “and” are separate entries in the source; they are usually repeats but may differ in a detail not shown here. Identical values can stand only once. Like-named read-outs stand apart in the source and are kept apart here.",
  "data": [
    {"substance": "3-(benzofuran-6-yl)-2-methyl-1-(3,4,5-trimethoxyphenyl)prop-2-en-1-one [Compound 7m]", "values": [
      {"measurement": "width and length of tubule-like network formation", "setting": "HUVECs", "result": "reduced in a concentration-dependent manner"},
      {"measurement": "Caspase3, band quantification", "setting": "[1]; 100nM, two runs", "result": "1.6879 and 1.67"},
      {"measurement": "Caspase7, band quantification", "setting": "[1]; 100nM, two runs", "result": "1.25 and 1.4891"},
      {"measurement": "Caspase9, band quantification", "setting": "[1]; 100nM, two runs", "result": 0.8806},
      {"measurement": "Cleaved caspase 3, band quantification", "setting": "[1]; 100nM, two runs", "result": "0.4362 and 0.4615"},
      {"measurement": "Cleaved caspase 7, band quantification", "setting": "[1]; 100nM, two runs", "result": "0.3077 and 0.3272"},
      {"measurement": "Cleaved caspase 9, band quantification", "setting": "[1]; 100nM, two runs", "result": "0.7024 and 0.6835"},
      {"measurement": "Cleaved parp, band quantification", "setting": "[1]; 100nM, two runs", "result": "0.5428 and 0.547"},
      {"measurement": "Caspase3, band quantification", "setting": "[1]; 200nM, two runs", "result": "1.615 and 1.544"},
      {"measurement": "Caspase7, band quantification", "setting": "[1]; 200nM, two runs", "result": "1.204 and 1.374"},
      {"measurement": "Caspase9, band quantification", "setting": "[1]; 200nM, two runs", "result": "0.8807 and 0.8294"},
      {"measurement": "Cleaved caspase 3, band quantification", "setting": "[1]; 200nM, two runs", "result": "0.3538 and 0.3842"},
      {"measurement": "Cleaved caspase 7, band quantification", "setting": "[1]; 200nM, two runs", "result": "0.3681 and 0.3821"},
      {"measurement": "Cleaved caspase 9, band quantification", "setting": "[1]; 200nM, two runs", "result": "0.8845 and 0.8641"},
      {"measurement": "Cleaved parp, band quantification", "setting": "[1]; 200nM, two runs", "result": "0.6141 and 0.6251"},
      {"measurement": "PARP, band quantification", "setting": "[1]; 200nM, two runs", "result": "0.2886 and 0.4533"},
      {"measurement": "Caspase3, band quantification", "setting": "[1]; 400nM, two runs", "result": "1.359 and 1.362"},
      {"measurement": "Caspase7, band quantification", "setting": "[1]; 400nM, two runs", "result": "1.134 and 1.286"},
      {"measurement": "Caspase9, band quantification", "setting": "[1]; 400nM, two runs", "result": "0.8246 and 0.7921"},
      {"measurement": "Cleaved caspase 3, band quantification", "setting": "[1]; 400nM, two runs", "result": "0.6252 and 0.6493"},
      {"measurement": "Cleaved caspase 7, band quantification", "setting": "[1]; 400nM, two runs", "result": "0.3556 and 0.4028"},
      {"measurement": "Cleaved caspase 9, band quantification", "setting": "[1]; 400nM, two runs", "result": "0.8063 and 0.765"},
      {"measurement": "Cleaved parp, band quantification", "setting": "[1]; 400nM, two runs", "result": "0.6767 and 0.7365"},
      {"measurement": "activation of Caspase-3/-7/-9", "setting": "[1]; 100, 200, 400 nM, 48 h", "result": "concentration-dependent activation"},
      {"measurement": "cleavage of PARP", "setting": "[1]; 100, 200, 400 nM, 48 h", "result": "significant cleavage of PARP"},
      {"measurement": "IC50", "setting": "[2]", "result": "70 to 183", "unit": "nM"},
      {"measurement": "IC50", "setting": "U937; 72 h, triplicate, mean ± SD, read-out: IC50 ± SD, U937", "result": "82 ± 2", "unit": "nM"},
      {"measurement": "IC50", "setting": "U937; supplement raw data of table 2, read-out: IC50(U937)", "result": 81.6, "unit": "nM"},
      {"measurement": "Late-apoptosis AVERAGE", "setting": "MCF-7 cells; 100nM", "result": 37.3},
      {"measurement": "Pro-apoptosis AVERAGE", "setting": "MCF-7 cells; 100nM", "result": 6.425},
      {"measurement": "Late-apoptosis (Q2 of Annexin/PI plot), single runs", "setting": "MCF-7 cells; 100nM", "result": "36 and 38.6"},
      {"measurement": "Pro-apoptosis (Q3 of Annexin/PI plot), single runs", "setting": "MCF-7 cells; 100nM", "result": "7.59 and 5.26"},
      {"measurement": "percentage of apoptotic cells (early and late apoptosis)", "setting": "MCF-7 cells; 100nM", "result": 44, "unit": "%"},
      {"measurement": "Late-apoptosis AVERAGE", "setting": "MCF-7 cells; 200nM", "result": 48.8},
      {"measurement": "Pro-apoptosis AVERAGE", "setting": "MCF-7 cells; 200nM", "result": 3.01},
      {"measurement": "Late-apoptosis (Q2 of Annexin/PI plot), single runs", "setting": "MCF-7 cells; 200nM", "result": "49.3 and 48.3"},
      {"measurement": "Pro-apoptosis (Q3 of Annexin/PI plot), single runs", "setting": "MCF-7 cells; 200nM", "result": "3.29 and 2.73"},
      {"measurement": "percentage of apoptotic cells (early and late apoptosis)", "setting": "MCF-7 cells; 200nM", "result": 53, "unit": "%"},
      {"measurement": "Late-apoptosis AVERAGE", "setting": "MCF-7 cells; 400nM", "result": 52.3},
      {"measurement": "Pro-apoptosis AVERAGE", "setting": "MCF-7 cells; 400nM", "result": 4.22},
      {"measurement": "Late-apoptosis (Q2 of Annexin/PI plot), single runs", "setting": "MCF-7 cells; 400nM", "result": "52.8 and 51.8"},
      {"measurement": "Pro-apoptosis (Q3 of Annexin/PI plot), single runs", "setting": "MCF-7 cells; 400nM", "result": "4.66 and 3.78"},
      {"measurement": "percentage of apoptotic cells (early and late apoptosis)", "setting": "MCF-7 cells; 400nM", "result": 57, "unit": "%"}
    ]}
  ]
}
